Laboratory results reported in US20100099762A1, “COMBINATION THERAPY” (THE MENTAL HEALTH RESEARCH INSTITUTE OF VICTORIA, priority 2006, published 2010).
Marks after values point to notes of the source that are not given here.

Experiments:
schizophrenia = test: Randomised double blind multicentre placebo controlled trial of NAC in combination with an antipsychotic agent in schizophrenia; format: in vivo, human
From the text: There is preclinical evidence of a reduction in antioxidant defences in schizophrenia, particularly a reduction in glutathione, which is a primary endogenous antioxidant defence. N-acetyl cysteine (NAC) is a bioavailable precursor of glutathione. This Example is a randomised double blind multicentre placebo controlled trial of the use of NAC in combination with an antipsychotic agent in the treatment of schizophrenia. A total of 140 individuals were randomised to receive 2 g daily of NAC in two divided doses, or placebo, together with their normal dosage of antipsychotic agent.
Participants were assigned randomly and consecutively to treatment with NAC or placebo in a double blind fashion. The randomisation log was generated by an independent individual using the traditional coin tossing method. The investigators and clinicians remained blind until data analysis was completed. The person generating the randomisation schedule was not involved in participant interviews, either for participant eligibility or outcome measurements.
All participants remained on their usual antipsychotic medication for the duration of the trial. The dose of the primary therapy was monitored. Participants were recruited through advertisements, referral by case clinicians and through database screening. All participants provided written informed consent as part of complying with the protocol.
All randomised participants received two NAC (500 mg) capsules twice daily, to a total dose of 2 g daily, or matching placebo capsules. Human dosing can be up to 5 g/day without adverse effects (Louwerse E. S. et al., 1995). A daily dose that is within the range of efficacy in published clinical trials (Adair J. C. et al., 2001, Van Schooten F. J. et al., 2002, and Behr J, et al., 2002) was selected. Once per day dosing is desirable in the drug treatment of schizophrenia, where medication compliance is known to be a challenge in management. However, steady state plasma levels cannot be achieved with a once daily oral dose of NAC as the plasma half-life is only 2-3 hours (Holdiness M. R., 1991 and Kelly G. S., 1998). While a twice-daily (BID) dosing regimen would also not be expected to achieve steady state plasma levels, dose intervals beyond BID were considered to markedly increase the risk of non-compliance in this population.
To be included, the patients were required to meet Diagnostic and Statistical Manual of Mental Disorders, fourth edition (DSM-IV) (Association AP, 1994) criteria for schizophrenia and have a PANSS total score of ≧55, or at least two items in the positive and/or negative items being >3, or have a CGI-S≧3. They needed to have the capacity to consent to the study, and be aged between 18 and 65. Both inpatients and outpatients were eligible. Participants needed to be currently taking an antipsychotic agent and to be utilising effective contraception if female and of childbearing age. Exclusion criteria included patients with abnormal renal, hepatic, thyroid or haematological findings, patients with a systemic medical disorder including asthma, allergies or any history of bronchospasm, respiratory insufficiency and recent gastrointestinal ulcers and females who were positive on pregnancy screening testing at baseline. Participants who were taking a mood stabiliser (e.g. lithium, valproate and carbamazepine) were excluded as were those currently taking drugs that are known to prevent GSH depletion (500+mg of NAC/day, 200+ug of selenium/day or 500+IU of Vitamin E/day).
Withdrawal from the trial occurred if participants ceased taking their trial medication for seven consecutive days, or ceased effective contraception, or became pregnant. A change in primary antipsychotic from one medication to another required participants to be withdrawn from the study. Similarly, the addition of a mood stabiliser required withdrawal of the participant. Dose changes to existing medications were not an exclusion criterion, and this was monitored. […]

[1] = in vivo; cited from earlier work
[2] = score at week 24, end of treatment
[3] = washout, week 28, LOCF ANCOVA with interaction term
[4] = week 8, LOCF ANCOVA, Placebo-NAC
[5] = week 24, LOCF ANCOVA, Placebo-NAC
[6] = week 24 to washout, week 28, LOCF ANCOVA
[7] = week 24 to washout, week 28, LOCF ANCOVA with interaction term

CC(=O)N[C@@H](CS)C(=O)O [NAC, N-acetyl cysteine]
PANSS General: NAC Mean Week 24 (SD) (schizophrenia; [2]): 28.8 (8.5) | PANSS Negative: NAC Mean Week 24 (SD) (schizophrenia; [2]): 13.7 (4.9) | PANSS Positive: NAC Mean Week 24 (SD) (schizophrenia; [2]): 14.5 (5.6) | PANSS Total: NAC Mean Week 24 (SD) (schizophrenia; [2]): 57.0 (16.1) | SAS: NAC Mean Week 24 (SD) (schizophrenia; [2]): 1.6 (1.3) | SOFAS: NAC Mean Week 24 (SD) (schizophrenia; [2]): 58.8 (12.7) | Onset of clinical benefit on CGI-I (scores significantly better than placebo) (schizophrenia; time from commencing treatment, Fisher's categorical analysis): ≤ 4 weeks | Onset of clinical benefit on CGI-S (scores significantly better than placebo) (schizophrenia; time from commencing treatment, MMRM): ≤ 2 weeks | AIMS: LS Mean Difference (95% CI) between placebo and NAC at post-treatment discontinuation (schizophrenia; washout, week 28, LOCF ANCOVA): −0.40 (−1.41, 0.61) | BAS: LS Mean Difference (95% CI) between placebo and NAC at post-treatment discontinuation (schizophrenia; washout, week 28, LOCF ANCOVA): −0.31 (−0.91, 0.29)^‡ | GAF: LS Mean Difference (95% CI) between placebo and NAC at post-treatment discontinuation (schizophrenia; washout, week 28, LOCF ANCOVA): 0.61 (−3.5, 4.72)^‡ | PANSS Positive: LS Mean Difference (95% CI) between placebo and NAC at post-treatment discontinuation (schizophrenia; washout, week 28, LOCF ANCOVA): 0.75 (−0.72, 2.22) | SAS: LS Mean Difference (95% CI) between placebo and NAC at post-treatment discontinuation (schizophrenia; washout, week 28, LOCF ANCOVA): −0.52 (−0.99, −0.05)* | SOFAS: LS Mean Difference (95% CI) between placebo and NAC at post-treatment discontinuation (schizophrenia; washout, week 28, LOCF ANCOVA): −1.17 (−4.89, 2.55) | PANSS General: LS Mean Difference (95% CI) between placebo and NAC at post-treatment discontinuation (schizophrenia; [3]): −0.85 (−3.45, 1.75)^‡ | PANSS Negative: LS Mean Difference (95% CI) between placebo and NAC at post-treatment discontinuation (schizophrenia; [3]): −1.58 (−3.17, 0.00)^‡ | PANSS Total: LS Mean Difference (95% CI) between placebo and NAC at post-treatment discontinuation (schizophrenia; [3]): −2.70 (−6.85, 1.45)^‡ | AIMS: Between Placebo-NAC differences Week 8 LS Mean Difference (95% CI) (schizophrenia; [4]): −0.31 (−1.0, 0.41) | BAS: Between Placebo-NAC differences Week 8 LS Mean Difference (95% CI) (schizophrenia; [4]): 0.20 (−0.24, 0.64) | GAF: Between Placebo-NAC differences Week 8 LS Mean Difference (95% CI) (schizophrenia; [4]): −0.51 (−3.7, 2.7) | PANSS General: Between Placebo-NAC differences Week 8 LS Mean Difference (95% CI) (schizophrenia; [4]): −1.5 (−3.4, 0.34) | PANSS Negative: Between Placebo-NAC differences Week 8 LS Mean Difference (95% CI) (schizophrenia; [4]): −0.49 (−1.8, 0.80) | PANSS Positive: Between Placebo-NAC differences Week 8 LS Mean Difference (95% CI) (schizophrenia; [4]): −0.25 (−1.5, 0.98) | PANSS Total: Between Placebo-NAC differences Week 8 LS Mean Difference (95% CI) (schizophrenia; [4]): −2.6 (−6.1, 0.80) | SAS: Between Placebo-NAC differences Week 8 LS Mean Difference (95% CI) (schizophrenia; [4]): −0.06 (−0.39, 0.26) | SOFAS: Between Placebo-NAC differences Week 8 LS Mean Difference (95% CI) (schizophrenia; [4]): −0.20 (−3.9, 3.5) | AIMS: Between Placebo-NAC differences Week 24 LS Mean Difference (95% CI) (schizophrenia; [5]): 0.12 (−0.65, 0.89) | BAS: Between Placebo-NAC differences Week 24 LS Mean Difference (95% CI) (schizophrenia; [5]): 0.54 (0.08, 1.00)* | GAF: Between Placebo-NAC differences Week 24 LS Mean Difference (95% CI) (schizophrenia; [5]): −2.6 (−6.6, 1.3) | PANSS Positive: Between Placebo-NAC differences Week 24 LS Mean Difference (95% CI) (schizophrenia; [5]): 0.50 (−1.1, 2.1) | SAS: Between Placebo-NAC differences Week 24 LS Mean Difference (95% CI) (schizophrenia; [5]): 0.11 (−0.27, 0.50) | SOFAS: Between Placebo-NAC differences Week 24 LS Mean Difference (95% CI) (schizophrenia; [5]): −0.92 (−5.67, 3.82) | AIMS: NAC Mean Overall Change (95% CI) at post-treatment discontinuation (schizophrenia; [6]): −0.27 (−1.0, 0.50) | BAS: NAC Mean Overall Change (95% CI) at post-treatment discontinuation (schizophrenia; [6]): 0.42 (−0.02, 0.86) | CGI-S: NAC Mean Overall Change (95% CI) at post-treatment discontinuation (schizophrenia; [6]): −0.17 (−0.41, 0.08) | GAF: NAC Mean Overall Change (95% CI) at post-treatment discontinuation (schizophrenia; [6]): 0.37 (−2.7, 3.5) | PANSS Positive: NAC Mean Overall Change (95% CI) at post-treatment discontinuation (schizophrenia; [6]): −0.96 (−2.0, 0.12) | SAS: NAC Mean Overall Change (95% CI) at post-treatment discontinuation (schizophrenia; [6]): 0.30 (−0.06, 0.65) | SOFAS: NAC Mean Overall Change (95% CI) at post-treatment discontinuation (schizophrenia; [6]): −0.79 (−3.8, 2.2) | PANSS General: NAC Mean Overall Change (95% CI) at post-treatment discontinuation (schizophrenia; [7]): 0.18 (−1.7, 2.1) | PANSS Negative: NAC Mean Overall Change (95% CI) at post-treatment discontinuation (schizophrenia; [7]): 0.60 (−0.55, 1.7) | PANSS Total: NAC Mean Overall Change (95% CI) at post-treatment discontinuation (schizophrenia; [7]): 0.56 (−2.4, 3.6) | Proportion of patients clinically improved on the CGI-I scale referred to baseline (schizophrenia; week 28, after washout, NAC versus placebo): remained significantly greater | More subjects in the NAC treatment group showing improvement on CGI-I compared to placebo (schizophrenia; weeks 12, 16 and 24): ≈ 25% | Human dosing without adverse effects [1]: up to 5 g/day
